According to US20250179032A1, “HETEROCYCLIC INHIBITORS OF GLUT9 FOR TREATMENT OF DISEASE” (HORIZON THERAPEUTICS IRELAND DAC, priority 2022, published 2025):
pIC50: −log10 of the molar value.

target: T1, H. sapiens SLC2A9 variant 2 (GLUT9B) (Homo sapiens, UniProt Q9NRM0); test: GLUT9 functional assay: uric acid uptake in HEK293T cells, allantoin formation by MS/MS as proxy of GLUT9B inhibition; type: cell-based; conditions: 15 minute assay; HEK293T cells stably expressing GLUT9B and transiently A. oryzae uricase; uric acid 0.3 mM, 37° C.; read-out: 15 min IC50
T1 sequence (Q9NRM0 1-511 isoform Q9NRM0-2): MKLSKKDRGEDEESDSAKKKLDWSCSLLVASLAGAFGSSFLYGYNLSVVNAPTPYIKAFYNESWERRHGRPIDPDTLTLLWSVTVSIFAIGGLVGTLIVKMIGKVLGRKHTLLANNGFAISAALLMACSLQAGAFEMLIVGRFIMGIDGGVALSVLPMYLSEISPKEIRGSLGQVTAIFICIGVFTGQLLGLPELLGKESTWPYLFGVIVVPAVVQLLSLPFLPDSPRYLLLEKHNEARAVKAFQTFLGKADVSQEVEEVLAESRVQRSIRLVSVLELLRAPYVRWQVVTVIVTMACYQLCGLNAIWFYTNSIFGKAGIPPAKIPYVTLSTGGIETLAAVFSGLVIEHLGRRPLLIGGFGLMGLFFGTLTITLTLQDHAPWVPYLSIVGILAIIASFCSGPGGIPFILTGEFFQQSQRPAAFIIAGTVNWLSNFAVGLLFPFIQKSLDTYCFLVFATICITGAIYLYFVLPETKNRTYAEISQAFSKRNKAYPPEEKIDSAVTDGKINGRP
Procedure, shortened: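 HEK293T cells stably expressing human GLUT9B and transiently expressing A. oryzae uricase, exposed across a 12-point curve to 0.3 mM uric acid (Km) in sodium gluconate buffer pH 7.4 for 15 or 60 min at 37° C. Allantoin in lysates quantified by RapidFire MS/MS (positive ion) against a matrix-matched standard curve as proxy for uptake.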

SMILES | pIC50
COCCNc1ccc(-c2ncc(CCC(F)(F)F)nc2N2CCC(C(=O)O)CC2)cc1 [Compound 103, 1-(3-(4-((2-methoxyethyl)amino)phenyl)-6-(3,3,3-trifluoropropyl)pyrazin-2-yl)piperidine-4-carboxylic acid] | 5.70 to 6.30
COCCN(C)c1ccc(-c2ncc(CCC(F)(F)F)nc2N2CCC(C(=O)O)CC2)cc1 [Compound 104, 1-(3-(4-((2-methoxyethyl)(methyl)amino)phenyl)-6-(3,3,3-trifluoropropyl)pyrazin-2-yl)piperidine-4-carboxylic acid] | 5.70 to 6.30
O=C(O)C1CCN(c2nc(CCC(F)(F)F)cnc2-c2ccncc2)CC1 [Compound 105, 1-(3-(pyridin-4-yl)-6-(3,3,3-trifluoropropyl)pyrazin-2-yl)piperidine-4-carboxylic acid] | < 5.70
CN(C)S(=O)(=O)N1CCN(c2nc(CCC(F)(F)F)cnc2-c2ccc3occc3c2)CC1 [Compound 106, 4-(3-(benzofuran-5-yl)-6-(3,3,3-trifluoropropyl)pyrazin-2-yl)-N,N-dimethylpiperazine-1-sulfonamide] | < 5.70
O=C(O)C1CCN(c2nc(CCCC(F)(F)F)cnc2-c2ccc3c(c2)CCO3)CC1 [Compound 107, 1-(3-(2,3-dihydrobenzofuran-5-yl)-6-(4,4,4-trifluorobutyl)pyrazin-2-yl)piperidine-4-carboxylic acid] | > 6.30
O=C(O)C1CCN(c2nc(CCCC(F)(F)F)cnc2-c2ccc3c(c2)OCO3)CC1 [Compound 108, 1-(3-(benzo[d][1,3]dioxol-5-yl)-6-(4,4,4-Trifluorobutyl)Pyrazin-2-yl)piperidine-4-carboxylic acid] | > 6.30
O=C(O)C1CCN(c2nc(CCCC(F)(F)F)cnc2-c2ccc3ncoc3c2)CC1 [Compound 109, 1-(3-(benzo[d]oxazol-6-yl)-6-(4,4,4-trifluorobutyl)pyrazin-2-yl)piperidine-4-carboxylic acid] | 5.70 to 6.30
O=C(O)C1CCN(c2nc(CCCC(F)(F)F)cnc2-c2ccc3c(c2)OCCO3)CC1 [Compound 110, 1-(3-(2,3-dihydrobenzo[b][1,4]dioxin-6-yl)-6-(4,4,4-trifluorobutyl)pyrazin-2-yl)piperidine-4-carboxylic acid] | 5.70 to 6.30
O=C(O)C1CCN(c2nc(CCCC(F)(F)F)cnc2-c2ccc(OCC3CC3)cc2)CC1 [Compound 111, 1-(3-(4-(cyclopropylmethoxy)phenyl)-6-(4,4,4-trifluorobutyl)pyrazin-2-yl)piperidine-4-carboxylic acid] | > 6.30
O=C(O)C1CCN(c2nc(CCCC(F)(F)F)cnc2-c2ccc3c(c2)CCCO3)CC1 [Compound 112, 1-(3-(chroman-6-yl)-6-(4,4,4-trifluorobutyl)pyrazin-2-yl)piperidine-4-carboxylic acid] | 5.70 to 6.30
O=C(O)C1CCN(c2nc(CCCC(F)(F)F)cnc2-c2ccc(OC3CC3)cc2)CC1 [Compound 113, 1-(3-(4-cyclopropoxyphenyl)-6-(4,4,4-trifluorobutyl)pyrazin-2-yl)piperidine-4-carboxylic acid] | 5.70 to 6.30
O=C(O)C1CCN(c2nc(CCCC(F)(F)F)cnc2-c2ccc3c(c2)NCCO3)CC1 [Compound 114, 1-(3-(3,4-dihydro-2H-benzo[b][1,4]oxazin-6-y)-6-(4,4,4-trifluorobutyl)pyrazin-2-yl)piperidine-4-carboxylic acid] | 5.70 to 6.30
O=C1COc2ccc(-c3ncc(CCCC(F)(F)F)nc3N3CCC(C(=O)O)CC3)cc2N1 [Compound 115, 1-(3-(3-oxo-3,4-dihydro-2H-benzo[b][1,4]oxazin-6-yl)-6-(4,4,4-trifluorobutyl)pyrazin-2-yl)piperidine-4-carboxylic acid] | < 5.70
O=C(O)C1CCN(c2nc(CCCC(F)(F)F)cnc2-c2cnc3occc3c2)CC1 [Compound 116, 1-(3-(furo[2,3-b]pyridin-5-yl)-6-(4,4,4-trifluorobutyl)pyrazin-2-yl)piperidine-4-carboxylic acid] | > 6.30
COCCOCCOc1ccc(-c2ncc(CCCC(F)(F)F)nc2N2CCC(C(=O)O)CC2)cc1 [Compound 117, 1-(3-(4-(2-(2-methoxyethoxy)ethoxy)phenyl)-6-(4,4,4-trifluorobutyl)pyrazin-2-yl)piperidine-4-carboxylic acid] | 5.70 to 6.30
COCCOCCCc1cnc(-c2cc(F)c3occc3c2)c(N2CCC(C(=O)O)CC2)n1 [Compound 118, 1-(3-(7-fluorobenzofuran-5-yl)-6-(3-(2-methoxyethoxy)propyl)pyrazin-2-yl)piperidine-4-carboxylic acid] | 5.70 to 6.30

SMILES | pIC50
O=C(O)C1CCN(c2nc(CCC(F)(F)F)cnc2-c2ccc3c(c2)CCO3)CC1 [Compound 119, 1-(3-(2,3-dihydrobenzofuran-5-yl)-6-(3,3,3-trifluoropropyl)pyrazin-2-yl)piperidine-4-carboxylic acid] | > 6.30
O=C(O)C1CCN(c2nc(CCC(F)(F)F)cnc2-c2ccc3c(c2)OCO3)CC1 [Compound 120, 1-(3-(benzo[d][1,3]dioxol-5-yl)-6-(3,3,3-trifluoropropyl)pyrazin-2-yl)piperidine-4-carboxylic acid] | > 6.30
O=C(O)C1CCN(c2nc(CCC(F)(F)F)cnc2-c2ccc3occc3c2)CC1 [Compound 121, 1-(3-(benzofuran-5-yl)-6-(3,3,3-trifluoropropyl)pyrazin-2-yl)piperidin-4-carboxylic acid] | > 6.30
O=C(O)C1CCN(c2nc(CCC(F)(F)F)cnc2-c2ccc3c(c2)OCCO3)CC1 [Compound 122, 1-(3-(2,3-dihyrobenzo[b][1,4]dioxin-6-yl)-6-(3,3,3-trifluoropropyl)pyrazin-2-yl)piperidine-4-carboxylic acid] | 5.70 to 6.30
O=C(O)C1CCN(c2nc(CCCC(F)(F)F)cnc2-c2ccc3occc3c2)CC1 [Compound 123, 1-(3-(benzofuran-5-yl)-6-(4,4,4-trifluorobutyl)pyrazin-2-yl)piperidine-4-carboxylic acid] | > 6.30
O=C(O)C1CCN(c2nc(CCC(F)(F)C(F)(F)F)cnc2-c2ccc3occc3c2)CC1 [Compound 124, 1-(3-(benzofuran-5-yl)-6-(3,3,4,4,4-pentafluorobutyl)pyrazin-2-yl)piperidine-4-carboxylic acid] | > 6.30
COCCOc1ccc(-c2ncc(CCC(F)(F)C(F)(F)F)nc2N2CCC(C(=O)O)CC2)cc1 [Compound 125, 1-(3-(4-(2-methoxyethoxy)phenyl)-6-(3,3,4,4,4-pentafluorobutyl)pyrazin-2-yl)piperidine-4-carboxylic acid] | 5.70 to 6.30
O=C(O)C1CCN(c2nc(CCC(F)(F)C(F)(F)F)cnc2-c2ccc3c(c2)OCO3)CC1 [Compound 126, 1-(3-(benzo[d][1,3]dioxol-5-yl)-6-(3,3,4,4,4-pentafluorobutyl)pyrazin-2-yl)piperidine-4-carboxylic acid] | > 6.30
O=C(O)C1CCN(c2nc(CC(C(F)(F)F)C(F)(F)F)cnc2-c2ccc3c(c2)OCO3)CC1 [Compound 127, 1-(3-(benzo[d][1,3]dioxol-5-yl)-6-(3,3,3-trifluoro-2-(trifluoromethyl)propyl)pyrazin-2-yl)piperidine-4-carboxylic acid] | 5.70 to 6.30
O=C(O)C1CCN(c2nc(CCCC(F)(F)F)cnc2-c2cc(F)c3occc3c2)CC1 [Compound 129, 1-(3-(7-fluorobenzofuran-5-yl)-6-(4,4,4-trifluorobutyl)pyrazin-2-yl)piperidine-4-carboxylic acid] | > 6.30
O=C(O)C1CCN(c2nc(CCCCC(F)(F)F)cnc2-c2ccc3occc3c2)CC1 [Compound 130, 1-(3-(benzofuran-5-yl)-6-(5,5,5-Trifluoropentyl)Pyrazin-2-yl)Piperidine-4-carboxylic acid] | > 6.30
O=C(O)C1CCN(c2nc(CCCCC(F)(F)F)cnc2-c2ccc3c(c2)CCO3)CC1 [Compound 131, 1-(3-(2,3-dihydrobenzofuran-5-yl)-6-(5,5,5-trifluoropentyl)pyrazin-2-yl)piperidine-4-carboxylic acid] | > 6.30
O=C(O)C1CCN(c2nc(CCCCC(F)(F)F)cnc2-c2ccc3c(c2)OCO3)CC1 [Compound 132, 1-(3-(benzo[d][1,3]dioxol-5-yl)-6-(5,5,5-trifluoropentyl)pyrazin-2-yl)piperidine-4-carboxylic acid] | > 6.30
COCCOc1ccc(-c2ncc(CCCCC(F)(F)F)nc2N2CCC(C(=O)O)CC2)cc1 [Compound 133, 1-(3-(4-(2-methoxyethoxy)phenyl)-6-(5,5,5-trifluoropentyl)pyrazin-2-yl)piperidine-4-carboxylic acid] | > 6.30
CC(F)(F)CCc1cnc(-c2ccc3occc3c2)c(N2CCC(C(=O)O)CC2)n1 [Compound 134, 1-(3-(benzofuran-5-yl)-6-(3,3-difluorobutyl)pyrazin-2-yl)piperidine-4-carboxylic acid] | > 6.30
CC(F)(F)CCc1cnc(-c2ccc3c(c2)CCO3)c(N2CCC(C(=O)O)CC2)n1 [Compound 135, 1-(6-(3,3-difluorobutyl)-3-(2,3-dihydrobenzofuran-5-yl)pyrazin-2-yl)piperidine-4-carboxylic acid] | 5.70 to 6.30

same assay, conditions: 60 minute assay; HEK293T cells stably expressing GLUT9B and transiently A. oryzae uricase; uric acid 0.3 mM, 37° C.; read-out: 60 min IC50

SMILES | pIC50
O=C(O)C1CCN(c2nc(CCCC(F)(F)F)cnc2-c2ccc3c(c2)OCO3)CC1 [Compound 108, 1-(3-(benzo[d][1,3]dioxol-5-yl)-6-(4,4,4-Trifluorobutyl)Pyrazin-2-yl)piperidine-4-carboxylic acid] | > 6.30
